# Measured values from US20220144840A1, “HETEROCYCLIC COMPOUNDS AND THEIR USE IN THE TREATMENT OF AMYLOID-RELATED DISEASES” (D.E. Shaw Research, LLC, priority 2019, published 2022).
# Target: T1, Beta-Amyloid (1-42), human (Homo sapiens, UniProt P05067)
# T1 construct: Component B: Beta-Amyloid (1-42), human, 0.25 mg×2, lyophilized;; purchased AnaSpec AS-72214
# Test: Thioflavin T (ThT) Beta-Amyloid (1-42) Aggregation Assay
# Assay type: biochemical
# Conditions: 8 μM Beta-Amyloid (1-42), 50 μM ThT dye, 37° C., slope of fluorescence time course; read-out: IC50 for inhibiting amyloids
# Procedure: This assay is used to evaluate the disclosed compounds' activities for inhibiting amyloids.
# Thioflavin T (ThT) Beta-Amyloid (1-42) Aggregation Assay Protocol
# SensoLyte Thioflavin T Beta-Amyloid (1-42) Aggregation Kit was used (AnaSpec Cat #AS-72214), which includes the following components:
# Component A: Assay Buffer (Buffer components are not disclosed);
# Component B: Beta-Amyloid (1-42), human, 0.25 mg×2, lyophilized;
# Component C: 20 mM ThT solution; and
# Component D: 20 mM Phenol Red (Control Inhibitor).
# The following buffer was used: 0.005% Tween 20, Assay Buffer from Kit (Component A), and 1% DMSO (final including carryover from compounds).
# The final reaction conditions include 8 μM Beta-Amyloid (1-42) and 50 μM ThT dye.
# Corning cat #3573, Non-Treated, Black 384-well plate was used as assay plate.
# Morin (Sigma Cat #: M4008-2G) was used as control inhibitor.
# The reaction procedure is as follows: • 1. Prepare 2×ThT solution in Reaction Buffer; keep in the dark; • 2. Deliver 10 μl/well of 2×ThT solution into the wells; • 3. Prepare 2× Beta-Amyloid solution in Reaction Buffer in polypropylene tube, sonicate for 5 min; keep on ice until use; • 4. Deliver compounds in DMSO into the ThT solution by Acoustic technology (Echo550; nanoliter range), no pre-incubation; • 5. Immediately after compound addition, deliver 10 μL/well of Beta-Amyloid solution into the reaction well, buffer into “No peptide” wells instead; • 6. Immediately start measuring fluorescence intensity in EnVision, set at 37° C., (Ex/Em=450/485 nm) as a time-course measurement every 5 min (30 sec shaking between each read) for 3 hours; • 7. Analyze data by taking slope (signal/time) of linear portion (typically 5 to 45 min) of measurement (therefore time period taken for slope for analysis is different for each target); and • 8. Slope is calculated by using Excel, and curve fits are performed using Prism software.
# T1 sequence (P05067 672-713 limits assumed): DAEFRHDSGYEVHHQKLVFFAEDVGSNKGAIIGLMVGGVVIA
row,IC50 [µM],SMILES
1,< 100,"CCn1c(SCc2cn3cc(C)ccc3n2)nc2ccccc21 [Compound 4, 1-ethyl-2-[([6-methylimidazo[1,2-a]pyridin-2-yl]methyl)sulfanyl]-1,3-benzodiazole]"
2,< 200,Cc1ccc2nc(CSc3nc4ccc(Cl)cc4[nH]3)cn2c1 [Compound 5]
3,< 100,"Clc1ccc2nc(SCc3cn4cc(Cl)ccc4n3)[nH]c2c1 [Compound 1, 6-chloro-2-[([6-chloroimidazo[1,2-a]pyridin-2-yl]methyl)sulfanyl]-1H-1,3-benzodiazole]"

# The next lines start with the molecule.
row,SMILES,IC50 [µM]
1,"O=[N+]([O-])c1ccc2nc(SCc3nc4ccc(Cl)cn4c3Br)[nH]c2c1 [Compound 2, 2-[([3-bromo-6-chloroimidazo[1,2-a]pyridin-2-yl]methyl)sulfanyl]-6-nitro-1H-1,3-benzodiazole]",< 200
2,"Cn1c(CSc2nc3ncccn3n2)nc2cc(Cl)ccc21 [Compound 3, 5-chloro-1-methyl-2-([[1,2,4]triazolo[1,5-a]pyrimidin-2-ylsulfanyl]methyl)-1,3-benzodiazole]",< 200
